Activity calls are given as the source filed them.
Tests used:
[1] = NIH-3T3 fibroblast cytotoxicity, dose response, cytotoxicity control, cell-based, fluorescence, Alamar Blue, secondary assay (AID 2327); format: functional;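 also: NIH-3T3 mouse fibroblasts cultured with fluconazole at 8 µg/mL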
[2] = fluconazole-exposed Candida albicans growth modulators – fluorescence, retest, confirmation (AID 2467); format: functional, cell-based
[3] = molecular target: Dual specificity tyrosine-phosphorylation-regulated kinase 1A (Rattus norvegicus, UniProt Q63470); format: biochemical, Homo sapiens
[4] = cells; format: functional, cell-based
[5] = molecular target: T1, Nuclear receptor subfamily 0 group B member 1 (Homo sapiens, UniProt P51843); format: functional, cell-based;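 also: HEK293T cells transfected with SF-1 and DAX-1 plus StAR promoter luciferase reporter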
T1 sequence (P51843 whole entry): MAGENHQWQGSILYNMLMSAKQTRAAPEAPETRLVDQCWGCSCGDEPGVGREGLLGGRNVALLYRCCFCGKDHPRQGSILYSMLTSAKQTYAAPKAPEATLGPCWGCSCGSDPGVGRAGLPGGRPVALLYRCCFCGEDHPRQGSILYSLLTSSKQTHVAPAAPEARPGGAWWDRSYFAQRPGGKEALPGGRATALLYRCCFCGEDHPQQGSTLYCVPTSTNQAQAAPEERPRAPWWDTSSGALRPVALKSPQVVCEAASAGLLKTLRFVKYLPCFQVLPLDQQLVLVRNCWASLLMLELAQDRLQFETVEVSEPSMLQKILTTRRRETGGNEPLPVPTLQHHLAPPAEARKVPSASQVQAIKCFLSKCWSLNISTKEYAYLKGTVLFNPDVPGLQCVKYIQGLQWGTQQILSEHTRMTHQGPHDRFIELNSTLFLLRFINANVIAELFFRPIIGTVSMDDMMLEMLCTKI

[6] = molecular target: Peroxisome proliferator-activated receptor gamma/Nuclear receptor coactivator 2 (Homo sapiens, UniProt P37231); format: functional;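 also: agonist potency for raising coactivator recruitment to the receptor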
Peroxisome proliferator-activated receptor gamma/Nuclear receptor coactivator 2, sequence (P37231 whole entry): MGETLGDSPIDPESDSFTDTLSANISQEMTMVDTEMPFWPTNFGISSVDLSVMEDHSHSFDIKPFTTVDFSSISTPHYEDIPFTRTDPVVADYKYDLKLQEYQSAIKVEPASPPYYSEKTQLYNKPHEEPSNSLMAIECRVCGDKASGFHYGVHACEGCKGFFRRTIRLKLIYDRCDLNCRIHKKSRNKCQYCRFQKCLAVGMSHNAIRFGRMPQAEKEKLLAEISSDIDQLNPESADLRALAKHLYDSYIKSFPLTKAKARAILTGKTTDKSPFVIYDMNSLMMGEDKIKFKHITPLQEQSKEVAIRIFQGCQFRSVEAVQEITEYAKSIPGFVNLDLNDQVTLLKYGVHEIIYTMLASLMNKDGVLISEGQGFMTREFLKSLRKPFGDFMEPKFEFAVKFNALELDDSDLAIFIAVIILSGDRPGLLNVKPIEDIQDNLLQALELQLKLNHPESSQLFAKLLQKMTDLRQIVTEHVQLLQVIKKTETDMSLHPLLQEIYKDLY
Peroxisome proliferator-activated receptor gamma/Nuclear receptor coactivator 2, sequence (Q15596 whole entry, further chain): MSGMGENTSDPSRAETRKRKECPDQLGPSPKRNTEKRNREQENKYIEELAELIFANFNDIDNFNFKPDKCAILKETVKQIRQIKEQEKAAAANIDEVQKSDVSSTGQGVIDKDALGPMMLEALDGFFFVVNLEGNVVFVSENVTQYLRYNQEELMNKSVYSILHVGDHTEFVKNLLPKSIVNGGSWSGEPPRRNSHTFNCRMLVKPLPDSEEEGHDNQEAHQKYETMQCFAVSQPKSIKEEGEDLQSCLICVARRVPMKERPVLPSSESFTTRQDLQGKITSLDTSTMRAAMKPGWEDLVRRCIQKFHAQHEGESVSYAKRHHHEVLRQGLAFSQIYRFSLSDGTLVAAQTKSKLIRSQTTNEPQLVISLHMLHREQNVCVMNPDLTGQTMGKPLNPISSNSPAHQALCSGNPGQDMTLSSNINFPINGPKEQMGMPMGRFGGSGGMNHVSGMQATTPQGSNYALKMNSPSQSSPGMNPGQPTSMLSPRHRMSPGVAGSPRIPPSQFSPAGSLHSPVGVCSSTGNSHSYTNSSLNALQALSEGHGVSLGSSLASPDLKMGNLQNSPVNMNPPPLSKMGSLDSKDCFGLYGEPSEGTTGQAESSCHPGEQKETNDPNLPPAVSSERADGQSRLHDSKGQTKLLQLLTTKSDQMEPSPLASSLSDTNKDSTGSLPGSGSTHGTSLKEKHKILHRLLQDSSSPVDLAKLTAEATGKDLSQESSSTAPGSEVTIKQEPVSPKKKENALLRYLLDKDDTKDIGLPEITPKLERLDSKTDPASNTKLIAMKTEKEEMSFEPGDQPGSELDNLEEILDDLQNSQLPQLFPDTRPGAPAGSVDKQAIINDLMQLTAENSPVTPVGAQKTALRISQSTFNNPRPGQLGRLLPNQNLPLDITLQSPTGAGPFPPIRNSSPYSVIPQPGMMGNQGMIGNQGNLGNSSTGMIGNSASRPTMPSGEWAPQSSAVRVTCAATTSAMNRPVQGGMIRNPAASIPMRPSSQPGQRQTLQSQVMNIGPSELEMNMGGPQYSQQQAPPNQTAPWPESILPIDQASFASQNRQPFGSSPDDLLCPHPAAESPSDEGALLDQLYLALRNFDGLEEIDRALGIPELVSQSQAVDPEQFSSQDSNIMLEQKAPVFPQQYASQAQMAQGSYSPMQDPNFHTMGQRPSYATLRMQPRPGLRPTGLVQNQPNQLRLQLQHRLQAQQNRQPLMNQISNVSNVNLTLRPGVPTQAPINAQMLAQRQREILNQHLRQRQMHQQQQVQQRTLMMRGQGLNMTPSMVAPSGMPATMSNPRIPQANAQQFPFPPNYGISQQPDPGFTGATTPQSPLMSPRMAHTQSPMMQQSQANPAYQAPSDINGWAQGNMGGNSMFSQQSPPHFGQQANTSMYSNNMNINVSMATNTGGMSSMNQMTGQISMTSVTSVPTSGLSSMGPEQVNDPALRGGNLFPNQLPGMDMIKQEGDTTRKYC

[7] = molecular target: Peroxisome proliferator-activated receptor gamma/Nuclear receptor coactivator 1 (Homo sapiens, UniProt P37231); format: functional;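 also: agonist potency as compounds enhance coactivator SRC-1 recruitment to PPARgamma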
Peroxisome proliferator-activated receptor gamma/Nuclear receptor coactivator 1, sequence (P37231 whole entry): as the sequence (P37231 whole entry) above
Peroxisome proliferator-activated receptor gamma/Nuclear receptor coactivator 1, sequence (Q15788 whole entry, further chain): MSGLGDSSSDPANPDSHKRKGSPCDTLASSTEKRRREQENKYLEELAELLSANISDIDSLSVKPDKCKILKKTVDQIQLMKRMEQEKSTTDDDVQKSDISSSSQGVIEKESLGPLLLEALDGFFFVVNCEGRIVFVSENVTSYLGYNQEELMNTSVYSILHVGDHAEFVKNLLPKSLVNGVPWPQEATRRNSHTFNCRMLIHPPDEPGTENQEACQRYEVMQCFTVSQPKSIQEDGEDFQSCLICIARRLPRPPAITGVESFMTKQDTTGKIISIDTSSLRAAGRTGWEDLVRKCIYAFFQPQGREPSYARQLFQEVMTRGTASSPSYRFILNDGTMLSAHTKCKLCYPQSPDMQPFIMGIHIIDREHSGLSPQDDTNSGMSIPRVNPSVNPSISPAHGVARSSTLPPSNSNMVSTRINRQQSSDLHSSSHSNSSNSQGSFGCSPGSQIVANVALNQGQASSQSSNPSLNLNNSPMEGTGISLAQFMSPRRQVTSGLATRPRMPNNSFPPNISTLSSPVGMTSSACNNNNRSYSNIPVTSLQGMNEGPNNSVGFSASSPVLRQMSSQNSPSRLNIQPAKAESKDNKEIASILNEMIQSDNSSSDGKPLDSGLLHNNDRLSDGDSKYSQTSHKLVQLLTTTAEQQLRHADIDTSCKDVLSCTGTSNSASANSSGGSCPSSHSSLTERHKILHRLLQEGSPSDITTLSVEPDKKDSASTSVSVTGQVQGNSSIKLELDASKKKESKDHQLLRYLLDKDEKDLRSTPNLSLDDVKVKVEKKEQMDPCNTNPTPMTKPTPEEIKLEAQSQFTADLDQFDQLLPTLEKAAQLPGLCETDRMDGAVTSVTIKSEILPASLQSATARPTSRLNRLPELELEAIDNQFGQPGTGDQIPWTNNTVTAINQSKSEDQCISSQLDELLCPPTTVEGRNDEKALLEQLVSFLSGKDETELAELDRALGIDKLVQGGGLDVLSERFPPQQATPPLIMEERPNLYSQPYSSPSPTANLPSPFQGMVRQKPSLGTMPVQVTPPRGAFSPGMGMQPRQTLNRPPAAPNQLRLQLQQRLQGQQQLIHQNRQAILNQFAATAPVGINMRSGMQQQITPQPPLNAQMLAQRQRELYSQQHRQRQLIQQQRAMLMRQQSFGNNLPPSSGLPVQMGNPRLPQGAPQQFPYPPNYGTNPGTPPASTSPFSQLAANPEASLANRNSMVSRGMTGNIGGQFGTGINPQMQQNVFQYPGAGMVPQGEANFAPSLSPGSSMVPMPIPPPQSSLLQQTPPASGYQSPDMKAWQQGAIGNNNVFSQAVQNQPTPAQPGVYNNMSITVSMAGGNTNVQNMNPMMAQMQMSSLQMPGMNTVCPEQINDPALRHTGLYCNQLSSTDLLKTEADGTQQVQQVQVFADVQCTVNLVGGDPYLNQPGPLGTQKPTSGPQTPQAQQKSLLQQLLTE

[8] = molecular target: Peroxisome proliferator-activated receptor gamma/Nuclear receptor coactivator 3 (Homo sapiens, UniProt P37231); format: functional;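 also: agonist potency for raising coactivator recruitment to the receptor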
[9] = molecular target: Trypsin (Sus scrofa, UniProt P00761); experiment: trypsin protease activity blockade – biochemical, quenched peptide fluorescence, cherry-pick, selectivity assay for Rce1 protease inhibitor project, dose response (AID 488789)
Trypsin, sequence (P00761 whole entry): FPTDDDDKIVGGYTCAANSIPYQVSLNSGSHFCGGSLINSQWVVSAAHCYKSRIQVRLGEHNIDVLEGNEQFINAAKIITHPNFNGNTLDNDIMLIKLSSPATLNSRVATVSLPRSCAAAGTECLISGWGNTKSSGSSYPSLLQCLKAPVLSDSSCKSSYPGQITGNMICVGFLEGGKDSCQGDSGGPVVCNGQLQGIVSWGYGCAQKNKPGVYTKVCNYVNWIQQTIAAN

[10] = molecular target: Cytochrome P450 3A4 (Homo sapiens, UniProt P08684);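 also: CYP3A4 tested as one member of a cytochrome P450 panel screen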
[11] = molecular target: Cytochrome P450 2C9 (Homo sapiens, UniProt P11712)
[12] = blockers of HIV-1 envelope-mediated cell-cell fusion – cherry-pick, dose response (AID 652057); format: functional, cell-based
[13] = viability loss in CEM21 cells – cell-based, CellTiter-Glo luminescence, cherry-picked, cytotoxicity control for viral fusion inhibitor project, dose response (AID 652042); format: functional;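 also: potency for signal decrease meaning cytotoxicity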
[14] = blockers of HIV-1 ZM109 envelope-driven cell-cell fusion – HeLa effector, CEM target cells, luciferase, cherry-pick, dose response (AID 652058); format: functional, cell-based;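 also: luciferase signal from HIV-1 Env mediated cell-cell fusion of effector and target cells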
[15] = off-target signal loss in HeLa-CEM21 co-culture – HeLa F-luc CTL cells, cherry-picked, counter-screen for HIV-1 Env fusion inhibitor project, dose response (AID 652040); format: functional, cell-based;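 also: potency for signal decrease marking cytotoxic or nonspecific inhibition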
[16] = HIV-1 AD8 envelope cell-cell fusion blockers – cherry-pick, dose response (AID 652062); format: functional, cell-based;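 also: luciferase signal from cell-cell fusion driven by HIV-1 clade B AD8 Env; potency is for inhibitors of fusion seen as a drop in luminescence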
[17] = molecular target: Luciferin 4-monooxygenase (Photinus pyralis, UniProt P08659); experiment: inhibition of purified Photinus pyralis luciferase – biochemical, luminescence, dose response (AID 1891)
Luciferin 4-monooxygenase, sequence (P08659 whole entry): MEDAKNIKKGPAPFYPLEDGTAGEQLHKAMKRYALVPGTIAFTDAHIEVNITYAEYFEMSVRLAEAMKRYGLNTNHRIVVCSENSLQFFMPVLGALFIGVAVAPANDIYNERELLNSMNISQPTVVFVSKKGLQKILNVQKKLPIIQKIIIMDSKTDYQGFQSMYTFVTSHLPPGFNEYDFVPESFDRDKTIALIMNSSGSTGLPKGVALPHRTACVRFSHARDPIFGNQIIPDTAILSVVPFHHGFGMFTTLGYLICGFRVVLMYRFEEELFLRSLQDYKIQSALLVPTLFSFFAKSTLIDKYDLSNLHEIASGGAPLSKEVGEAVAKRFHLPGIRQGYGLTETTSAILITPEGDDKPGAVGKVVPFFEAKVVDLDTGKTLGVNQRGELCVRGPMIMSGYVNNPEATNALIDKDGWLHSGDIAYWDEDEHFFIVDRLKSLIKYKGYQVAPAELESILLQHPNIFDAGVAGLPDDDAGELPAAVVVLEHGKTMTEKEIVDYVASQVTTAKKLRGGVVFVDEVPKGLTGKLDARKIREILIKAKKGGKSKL

[18] = Luminescence Cell-Based Dose Confirmation HTS to Identify Inhibitors of Platelet Dense Granule Release. [Related pubchem assays: 1663 (Primary HTS), 1678 (Summary of Project)]; format: functional
[19] = molecular target: T2, fMet-Leu-Phe receptor (Homo sapiens, UniProt P21462); experiment: formyl peptide receptor binders – dose response (AID 519); format: functional
T2 sequence (P21462 whole entry): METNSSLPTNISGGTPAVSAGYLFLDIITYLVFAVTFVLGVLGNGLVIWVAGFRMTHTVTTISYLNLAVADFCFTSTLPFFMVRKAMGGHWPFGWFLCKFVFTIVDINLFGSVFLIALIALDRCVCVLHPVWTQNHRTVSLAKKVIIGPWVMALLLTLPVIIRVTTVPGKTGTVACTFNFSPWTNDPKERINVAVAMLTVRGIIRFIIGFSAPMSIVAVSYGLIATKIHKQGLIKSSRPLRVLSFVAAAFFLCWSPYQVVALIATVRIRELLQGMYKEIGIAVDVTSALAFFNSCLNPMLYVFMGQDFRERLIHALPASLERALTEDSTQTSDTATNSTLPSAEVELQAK

[20] = A cytotoxicity screen of small molecule inhibitors of the PhoP region in Salmonella typhi identified in the primary screen. [Related pubchem assays: 1850, 1864, 1985 ]; format: functional
[21] = Trypanosoma cruzi growth suppression in host cells – NIH3T3 host cells, beta-gal luminescence, confirmation (AID 2044); format: functional, cell-based;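 also: intracellular parasites grown in NIH/3T3 mouse fibroblasts as host cells; luminescent beta-galactosidase reporter signal from transgenic T. cruzi replicating inside host cells; inhibitors lower the luminescence signal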
[22] = NIH3T3 cell viability loss – ATP luminescence, mouse fibroblasts, counter-screen, dose response (AID 2010); format: functional, cell-based;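 also: cells exposed to compound for about 90 hours before reading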
[23] = molecular target: T3, Cytochrome P450 1A2 (Homo sapiens, UniProt P05177);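 also: PubChem cytochrome P450 panel assay, CYP1A2 panel member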
T3 sequence (P05177 whole entry): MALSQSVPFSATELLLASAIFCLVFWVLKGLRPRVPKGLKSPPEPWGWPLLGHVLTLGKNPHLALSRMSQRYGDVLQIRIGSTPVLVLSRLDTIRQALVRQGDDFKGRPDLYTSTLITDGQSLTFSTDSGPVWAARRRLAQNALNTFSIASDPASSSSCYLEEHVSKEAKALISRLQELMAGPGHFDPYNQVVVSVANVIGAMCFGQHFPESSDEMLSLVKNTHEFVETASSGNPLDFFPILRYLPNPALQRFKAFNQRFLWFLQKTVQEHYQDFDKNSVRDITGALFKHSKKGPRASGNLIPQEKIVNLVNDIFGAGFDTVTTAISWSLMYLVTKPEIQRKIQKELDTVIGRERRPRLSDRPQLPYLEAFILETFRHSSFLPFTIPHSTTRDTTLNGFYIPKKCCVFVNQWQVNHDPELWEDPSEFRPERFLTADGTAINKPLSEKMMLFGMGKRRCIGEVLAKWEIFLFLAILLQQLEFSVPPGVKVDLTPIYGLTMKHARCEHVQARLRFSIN

[24] = molecular target: Induced myeloid leukemia cell differentiation protein Mcl-1 (Homo sapiens, UniProt Q07820); format: functional
Induced myeloid leukemia cell differentiation protein Mcl-1, sequence (Q07820 whole entry): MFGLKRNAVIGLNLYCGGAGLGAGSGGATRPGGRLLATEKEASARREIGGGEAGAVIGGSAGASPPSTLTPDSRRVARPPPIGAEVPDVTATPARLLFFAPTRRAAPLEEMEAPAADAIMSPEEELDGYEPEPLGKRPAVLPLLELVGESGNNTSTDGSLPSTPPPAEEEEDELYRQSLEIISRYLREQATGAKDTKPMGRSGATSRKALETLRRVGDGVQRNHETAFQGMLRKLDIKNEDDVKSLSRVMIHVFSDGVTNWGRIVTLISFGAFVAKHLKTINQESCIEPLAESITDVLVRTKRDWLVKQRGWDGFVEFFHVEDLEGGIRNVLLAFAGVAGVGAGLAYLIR

[25] = molecular target: T4, Sentrin-specific protease 8 (Homo sapiens, UniProt Q96LD8); format: functional
T4 sequence (Q96LD8 whole entry): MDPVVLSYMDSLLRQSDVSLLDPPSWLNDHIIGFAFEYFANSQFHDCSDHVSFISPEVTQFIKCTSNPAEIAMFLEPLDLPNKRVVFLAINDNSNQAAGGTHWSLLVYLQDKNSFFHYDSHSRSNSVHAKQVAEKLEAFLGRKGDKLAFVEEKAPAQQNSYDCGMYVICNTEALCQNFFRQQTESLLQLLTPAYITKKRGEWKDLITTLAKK

[26] = molecular target: T4, Sentrin-specific protease 8; format: functional; remark: listed apart in the source
[27] = molecular target: T5, Caspase-6 (Homo sapiens, UniProt P55212); experiment: inhibition of CASP6 peptide cleavage – biochemical, VEID-R110 fluorescence, cherry-pick, dose response (AID 720632)
T5 sequence (P55212 whole entry): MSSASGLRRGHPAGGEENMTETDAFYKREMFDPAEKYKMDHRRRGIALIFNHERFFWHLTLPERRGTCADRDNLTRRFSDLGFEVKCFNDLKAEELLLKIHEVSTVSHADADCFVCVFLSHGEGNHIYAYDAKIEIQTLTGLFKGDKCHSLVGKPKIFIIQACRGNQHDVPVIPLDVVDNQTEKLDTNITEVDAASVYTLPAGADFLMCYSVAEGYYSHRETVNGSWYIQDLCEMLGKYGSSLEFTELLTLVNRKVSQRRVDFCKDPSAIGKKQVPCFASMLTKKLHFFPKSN

[28] = Vero E6 cell cytotoxicity, dose response, cytotoxicity control for non-replicating M. tuberculosis project, secondary assay (AID 492998); format: functional, VeroE6; details: Vero C1008
[29] = cells; format: functional

c1ccc2sc(NN=C3CCCCCC3)nc2c1
EC50 [1]: > 150 µM (inactive) | EC50 [2]: > 38 µM (not active) | AC50 [3]: 3.89 µM (active) | IC50 [4]: > 67.5 µM (inactive) | IC50 [5]: > 0.278 µM (active)

O=S(=O)(c1ccccc1)c1cnn2c(C(F)(F)F)cc(-c3ccc(F)cc3)nc12
EC50 [6]: > 79.4 µM (not active) | EC50 [7]: > 79.4 µM (not active) | EC50 [8]: > 79.4 µM (not active) | AC50 [9]: 20.2 µM (active) | AC50 [10]: 3.16 µM (inconclusive) | AC50 [11]: inconclusive

CCN(CC(O)c1cccc(O)c1)C(=O)C12CC3CC(CC(C3)C1)C2 (stereo not drawn)
AC50 [12]: 0.33 µM (active) | AC50 [13]: 46.4 µM (active) | AC50 [14]: 0.415 µM (active) | AC50 [15]: 0.619 µM (active) | AC50 [16]: 3 µM (active)

COc1ccc(S(=O)(=O)N2CCCCC2)cc1NC(=O)Cc1sc(C)nc1-c1ccc(F)cc1
AC50 [12]: 0.863 µM (active) | AC50 [14]: 2.59 µM (active) | AC50 [15]: 2.18 µM (active) | AC50 [16]: 6.25 µM (active)

O=C(/C=C\Nc1ccc2c(c1)OCO2)c1cccs1
EC50 [17]: 0.912 µM (active) | EC50 [18]: 6.14 µM (active) | IC50 [4]: > 67.5 µM (inactive) | IC50 [5]: > 67.5 µM (inactive)

COCCN1C(=O)C(O)=C(C(=O)c2cccs2)C1c1ccccc1 (stereo not drawn)
Ki [19]: > 66.7 µM (inactive)

Cc1cccc(N2CCN(C(=O)C3CCN(c4nnc(-n5cccc5)s4)CC3)CC2C)c1 (stereo not drawn)
EC50 [20]: > 50 µM (active)

CN1CCC(OC(=O)c2ccc(Cl)cc2Cl)CC1
EC50 [20]: > 50 µM (active) | EC50 [21]: 0.127 µM (active) | EC50 [22]: > 60 µM (not active)

COc1cccc(OC)c1/C(O)=C(\C#N)c1nc2ccccc2[nH]1
Ki [19]: > 66.7 µM (inactive) | AC50 [23]: 12.6 µM (inconclusive)

N=c1oc2cc(O)ccc2cc1C(=O)Nc1nc2ccccc2s1
IC50 [24]: 3.21 µM (active) | AC50 [9]: 12.4 µM (active)

O=C(COC(=O)c1ccc([N+](=O)[O-])o1)NC1CCS(=O)(=O)C1 (stereo not drawn)
IC50 [25]: 9.9 µM (active) | IC50 [26]: 8.96 µM (active) | AC50 [27]: 39.7 µM (active)

CCOc1cc(-c2nnc(NC(=O)c3ccco3)o2)cc(OCC)c1OCC
CC50 [28]: > 20 µM (active) | IC50 [29]: 5.12 µM (active)

From ChEMBL document CHEMBL1201862, “PubChem BioAssay data set” (2004)
